Test results taken from patent US4824937A, “Synthetic natriuretic peptides” (501 Advanced Peptide Development, Ltd., priority 1986, dated 1989).
Ends that are not written are not given here.

Experiments:
[1] = tested on: male normotensive Sprague-Dawley rats; experiment: Diuretic activity: urine flow after i.v. bolus in anesthetized rats; assay type: in vivo, rat; conditions: 3.5 mcg/kg i.v. bolus; for URINE FLOW: 8 rats
Experimental: (§1) The diuretic activities of the synthetic natriuretic peptides (SNP) of this invention and their effects upon electrolyte excretion are determined in male normotensive Sprague-Dawley rats. The animals are anesthetized with sodium pentobarbital (55 mg/kg), the femoral vein is cannulated for injection of the test compound and for infusion of Ringer's solution, the bladder is cannulated for urine collection, and the trachea is cannulated to ensure a clean airway. The animals are infused with Ringer's solution at a rate of 1.2 ml/20 min. for 20 minutes, the infusion rate is then decreased to 1.2 ml/hour for a further 20 minutes, and urine collections are started at the end of that period. Three 10-minute collections are taken as control samples, and at the end of the third 10-minute period the SNP to be tested is injected as a bolus over 30 seconds into the femoral vein. Infusion of Ringer's solution at 1.2 ml/hour is continued for the duration of the experiment, and urine samples are collected every 10 minutes over 4 hours, their respective volumes are determined, and the concentrations of Na^+, Cl^-, and K^+ are measured using a NovaBiomedical electrolyte analyzer. The above determinations are done on samples pooled from all animals in a given experiment, and urine flow is calculated as ml/min./kg body weight while electrolyte concentrations are calculated as mmol/l/gm kidney tissue.
(§2) Details of the assay method are described above, and it remains only to be stated that 8 male normotensive Sprague-Dawley rats are used in each group. […] Urine flow then decreases sharply and is at control volumes at about 40 minutes where it remains until about 140 minutes.

[2] = tested on: male normotensive Sprague-Dawley rats; experiment: Effects upon electrolyte excretion (Na+, K+, Cl- in urine) after i.v. bolus in anesthetized rats; assay type: in vivo, rat; conditions: 3.5 mcg/kg i.v. bolus; for ELECTROLYTE EXCRETION Cl^- / ELECTROLYTE EXCRETION K^+ / ELECTROLYTE EXCRETION Na^+: pooled urine of 8 rats
Experimental: as §1, §2

## BG-3009: known ANP composed of 28 amino acid residues, identical with the ANP described by Flynn et al. (SLRRSSCFGGRIDRIGAQSGLGCNSFRY; not fully specified; ends and bridges not checked; UniProt P01161 123-150, looked up)
[1]; from 150 minutes (BG-3009: after 130 minutes) to the end of the experiment
  effect on urine flow, late phase (in words): hardly noticeable and may not be significant
[1]; from injection up to 130-140 minutes
  effect on urine flow, early phase (in words): shows similar effects up to 130 minutes
[1]; 10 min after injection
  URINE FLOW: 333.7 ml./min./kg. body wt × 10^-3
[1]; 20 min after injection
  URINE FLOW: 55.7 ml./min./kg. body wt × 10^-3
[1]; 30 min after injection
  URINE FLOW: 23.3 ml./min./kg. body wt × 10^-3
[1]; 40 min after injection
  URINE FLOW: 16.4 ml./min./kg. body wt × 10^-3
[1]; 50 min after injection
  URINE FLOW: 16.9 ml./min./kg. body wt × 10^-3
[1]; 60 min after injection
  URINE FLOW: 16.7 ml./min./kg. body wt × 10^-3
[1]; 70 min after injection
  URINE FLOW: 16.4 ml./min./kg. body wt × 10^-3
[1]; 80 min after injection
  URINE FLOW: 16.4 ml./min./kg. body wt × 10^-3
[1]; 90 min after injection
  URINE FLOW: 15.2 ml./min./kg. body wt × 10^-3
[1]; 100 min after injection
  URINE FLOW: 16.0 ml./min./kg. body wt × 10^-3
[1]; 110 min after injection
  URINE FLOW: 17.2 ml./min./kg. body wt × 10^-3
[1]; 120 min after injection
  URINE FLOW: 17.6 ml./min./kg. body wt × 10^-3
[1]; 130 min after injection
  URINE FLOW: 23.4 ml./min./kg. body wt × 10^-3
[1]; 140 min after injection
  URINE FLOW: 22.6 ml./min./kg. body wt × 10^-3
[1]; 150 min after injection
  URINE FLOW: 21.4 ml./min./kg. body wt × 10^-3
[1]; 160 min after injection
  URINE FLOW: 19.7 ml./min./kg. body wt × 10^-3
[1]; 170 min after injection
  URINE FLOW: 19.9 ml./min./kg. body wt × 10^-3
[1]; 180 min after injection
  URINE FLOW: 20.5 ml./min./kg. body wt × 10^-3
[1]; 190 min after injection
  URINE FLOW: 22.3 ml./min./kg. body wt × 10^-3
[1]; 200 min after injection
  URINE FLOW: 22.3 ml./min./kg. body wt × 10^-3
[1]; 210 min after injection
  URINE FLOW: 20.7 ml./min./kg. body wt × 10^-3
[1]; 220 min after injection
  URINE FLOW: 22.7 ml./min./kg. body wt × 10^-3
[1]; 230 min after injection
  URINE FLOW: 28.6 ml./min./kg. body wt × 10^-3
[1]; 240 min after injection
  URINE FLOW: 25.9 ml./min./kg. body wt × 10^-3
[2]
  effect on Na^+ excretion, early phase (in words): sharp increases in Na^+ excretion for the first 30-40 minutes
[2]; early phase
  effect on K^+ and Cl^- excretion (in words): short-lasting decreases in K^+ and Cl^- excretion returning to control values after about 60 minutes
[2]; from about 140-160 minutes to 240 minutes
  effect on Na^+ and Cl^- excretion, late phase (in words): slight increase in Na^+ and Cl^- excretion
[2]; 10 min after injection
  ELECTROLYTE EXCRETION Cl^-: 10.1 mmol/l./gm. kidney tissue
  ELECTROLYTE EXCRETION K^+: 1.5 mmol/l./gm. kidney tissue
  ELECTROLYTE EXCRETION Na^+: 10.0 mmol/l./gm. kidney tissue
[2]; 20 min after injection
  ELECTROLYTE EXCRETION Cl^-: 12.8 mmol/l./gm. kidney tissue
  ELECTROLYTE EXCRETION K^+: 2.4 mmol/l./gm. kidney tissue
  ELECTROLYTE EXCRETION Na^+: 13.2 mmol/l./gm. kidney tissue
[2]; 30 min after injection
  ELECTROLYTE EXCRETION Cl^-: 12.7 mmol/l./gm. kidney tissue
  ELECTROLYTE EXCRETION K^+: 4.9 mmol/l./gm. kidney tissue
  ELECTROLYTE EXCRETION Na^+: 12.4 mmol/l./gm. kidney tissue
[2]; 40 min after injection
  ELECTROLYTE EXCRETION Cl^-: 13.0 mmol/l./gm. kidney tissue
  ELECTROLYTE EXCRETION K^+: 5.6 mmol/l./gm. kidney tissue
  ELECTROLYTE EXCRETION Na^+: 11.1 mmol/l./gm. kidney tissue
[2]; 50 min after injection
  ELECTROLYTE EXCRETION Cl^-: 14.0 mmol/l./gm. kidney tissue
  ELECTROLYTE EXCRETION K^+: 6.6 mmol/l./gm. kidney tissue
  ELECTROLYTE EXCRETION Na^+: 8.8 mmol/l./gm. kidney tissue
[2]; 60 min after injection
  ELECTROLYTE EXCRETION Cl^-: 13.5 mmol/l./gm. kidney tissue
  ELECTROLYTE EXCRETION K^+: 7.4 mmol/l./gm. kidney tissue
  ELECTROLYTE EXCRETION Na^+: 7.8 mmol/l./gm. kidney tissue
[2]; 70 min after injection
  ELECTROLYTE EXCRETION Cl^-: 13.7 mmol/l./gm. kidney tissue
  ELECTROLYTE EXCRETION K^+: 7.7 mmol/l./gm. kidney tissue
  ELECTROLYTE EXCRETION Na^+: 7.1 mmol/l./gm. kidney tissue
[2]; 80 min after injection
  ELECTROLYTE EXCRETION Cl^-: 13.0 mmol/l./gm. kidney tissue
  ELECTROLYTE EXCRETION K^+: 7.9 mmol/l./gm. kidney tissue
  ELECTROLYTE EXCRETION Na^+: 6.5 mmol/l./gm. kidney tissue
[2]; 90 min after injection
  ELECTROLYTE EXCRETION Cl^-: 13.3 mmol/l./gm. kidney tissue
  ELECTROLYTE EXCRETION K^+: 8.0 mmol/l./gm. kidney tissue
  ELECTROLYTE EXCRETION Na^+: 6.4 mmol/l./gm. kidney tissue
[2]; 100 min after injection
  ELECTROLYTE EXCRETION Cl^-: 13.3 mmol/l./gm. kidney tissue
  ELECTROLYTE EXCRETION K^+: 8.2 mmol/l./gm. kidney tissue
  ELECTROLYTE EXCRETION Na^+: 6.3 mmol/l./gm. kidney tissue
[2]; 110 min after injection
  ELECTROLYTE EXCRETION Cl^-: 13.1 mmol/l./gm. kidney tissue
  ELECTROLYTE EXCRETION K^+: 8.2 mmol/l./gm. kidney tissue
  ELECTROLYTE EXCRETION Na^+: 6.5 mmol/l./gm. kidney tissue
[2]; 120 min after injection
  ELECTROLYTE EXCRETION Cl^-: 13.7 mmol/l./gm. kidney tissue
  ELECTROLYTE EXCRETION K^+: 8.5 mmol/l./gm. kidney tissue
  ELECTROLYTE EXCRETION Na^+: 6.7 mmol/l./gm. kidney tissue
[2]; 130 min after injection
  ELECTROLYTE EXCRETION Cl^-: 13.6 mmol/l./gm. kidney tissue
  ELECTROLYTE EXCRETION K^+: 8.6 mmol/l./gm. kidney tissue
  ELECTROLYTE EXCRETION Na^+: 6.6 mmol/l./gm. kidney tissue
[2]; 140 min after injection
  ELECTROLYTE EXCRETION Cl^-: 14.8 mmol/l./gm. kidney tissue
  ELECTROLYTE EXCRETION K^+: 9.0 mmol/l./gm. kidney tissue
  ELECTROLYTE EXCRETION Na^+: 7.0 mmol/l./gm. kidney tissue
[2]; 150 min after injection
  ELECTROLYTE EXCRETION Cl^-: 15.2 mmol/l./gm. kidney tissue
  ELECTROLYTE EXCRETION K^+: 9.4 mmol/l./gm. kidney tissue
  ELECTROLYTE EXCRETION Na^+: 7.3 mmol/l./gm. kidney tissue
[2]; 160 min after injection
  ELECTROLYTE EXCRETION Cl^-: 14.2 mmol/l./gm. kidney tissue
  ELECTROLYTE EXCRETION K^+: 9.4 mmol/l./gm. kidney tissue
  ELECTROLYTE EXCRETION Na^+: 7.4 mmol/l./gm. kidney tissue
[2]; 170 min after injection
  ELECTROLYTE EXCRETION Cl^-: 14.4 mmol/l./gm. kidney tissue
  ELECTROLYTE EXCRETION K^+: 9.2 mmol/l./gm. kidney tissue
  ELECTROLYTE EXCRETION Na^+: 7.7 mmol/l./gm. kidney tissue
[2]; 180 min after injection
  ELECTROLYTE EXCRETION Cl^-: 14.8 mmol/l./gm. kidney tissue
  ELECTROLYTE EXCRETION K^+: 9.1 mmol/l./gm. kidney tissue
  ELECTROLYTE EXCRETION Na^+: 8.3 mmol/l./gm. kidney tissue
[2]; 190 min after injection
  ELECTROLYTE EXCRETION Cl^-: 14.4 mmol/l./gm. kidney tissue
  ELECTROLYTE EXCRETION K^+: 8.7 mmol/l./gm. kidney tissue
  ELECTROLYTE EXCRETION Na^+: 8.7 mmol/l./gm. kidney tissue
[2]; 200 min after injection
  ELECTROLYTE EXCRETION Cl^-: 14.7 mmol/l./gm. kidney tissue
  ELECTROLYTE EXCRETION K^+: 8.5 mmol/l./gm. kidney tissue
  ELECTROLYTE EXCRETION Na^+: 9.2 mmol/l./gm. kidney tissue
[2]; 210 min after injection
  ELECTROLYTE EXCRETION Cl^-: 15.0 mmol/l./gm. kidney tissue
  ELECTROLYTE EXCRETION K^+: 8.4 mmol/l./gm. kidney tissue
  ELECTROLYTE EXCRETION Na^+: 9.6 mmol/l./gm. kidney tissue
[2]; 220 min after injection
  ELECTROLYTE EXCRETION Cl^-: 15.3 mmol/l./gm. kidney tissue
  ELECTROLYTE EXCRETION K^+: 8.3 mmol/l./gm. kidney tissue
  ELECTROLYTE EXCRETION Na^+: 9.4 mmol/l./gm. kidney tissue
[2]; 230 min after injection
  ELECTROLYTE EXCRETION Cl^-: 14.8 mmol/l./gm. kidney tissue
  ELECTROLYTE EXCRETION K^+: 8.3 mmol/l./gm. kidney tissue
  ELECTROLYTE EXCRETION Na^+: 9.2 mmol/l./gm. kidney tissue
[2]; 240 min after injection
  ELECTROLYTE EXCRETION Cl^-: 15.7 mmol/l./gm. kidney tissue
  ELECTROLYTE EXCRETION K^+: 8.5 mmol/l./gm. kidney tissue
  ELECTROLYTE EXCRETION Na^+: 9.2 mmol/l./gm. kidney tissue
